Patent US4246270A, “3-Fluorobenzodiazepines and compositions and uses thereof” (E. I. Du Pont de Nemours and Company, priority 1976, dated 1981)
Read-outs that look alike come from different tables or passages of the source.

Columns and labels:
[1] = system: auditory pinna reflex; assay: Auditory pinna reflex test (mouse); assay type: in vivo; settings: 0.5 h, oral (intubated), 30 minutes
Experimental: (§1) Standard procedures for detecting and comparing the tranquilizer, muscle-relaxant, and sedative activity of compounds in this series for which there is a correlation with human efficacy are the following: pinna reflex tests, antipentylenetetrazole test, rat activity suppression test (RAST), muscle relaxant (anti-straub tail) test, and mouse activity suppression test (MAST).
(§2) Fasted female white mice, 5 per dose are intubated with drug at 4, 12, 36, 108 and 324 mg/kg in 1% Methocel®^- 1.25% Tween 80®, at 10 ml/kg. The auditory and tactile pinna are tested at 0.5, 2, 5 and 24 hours.
The mouse is placed on a horizontal bar 9 cm from a Galton whistle adjusted for 13 Kc. Failure to flatten the ears during one or 2 short bursts of sound constitutes loss of auditory pinna reflex.
(§3) Potency in the antipentylenetetrazole (PTZ), the MAST, and the RAST tests indicates a potent antianxiety agent. Great potency for blockade of the mouse auditory pinna reflex with little or no effect on tactile pinna reflex is characteristic of minor tranquilizers.

[2] = system: tactile pinna reflex; assay: Tactile pinna reflex test (mouse); assay type: in vivo; settings: 0.5 h, oral (intubated), 30 minutes
Experimental: as §1, §2
The mouse is held by the tail and the hairs inside the right ear are touched by the fine wire stylus from a 27 gauge needle. Failure of the mouse to twitch or move the head constitutes loss of the tactile pinna reflex.
as §3

[3] = system: PTZ-induced clonic convulsions; assay: Antipentylenetetrazole (PTZ) test; assay type: in vivo; settings: mouse; for ED50: 0.5 h, oral (intubated), 30 minutes before PTZ 40 mg/kg iv, read-out: Anti-PTZ, mouse ED50
Experimental: as §1
Fasted female white mice, 10 per dose are intubated with drug in vehicle as above at doses such as 0, 1, 3, 9, 27 and 81 mg/kg. Thirty minutes later the mice are dosed intravenously with PTZ (Metrazol®^1) at 40 mg/kg (ED98 for clonic convulsions). Dosed animals which remain on a 4"×4" platform for 20 seconds are considered protected. Quantal ED50 's are calculated by the moving average method.
1 Original brand of pentylenetetrazole; sterile 10% aqueous solution for parenteral injection, Knoll Pharmaceutical Company.
as §3

[4] = system: suppression of exploratory locomotor behavior by punishment; assay: Mouse activity suppression test (MAST); assay type: in vivo; settings: oral, footnote *ED20%
Description: as §1
The Mouse Activity Suppression Test (MAST) is a model system designed to detect compounds with possible anti-anxiety activity in humans. […] The punishment, an electric shock applied through the mouse's paws, quickly extinguishes normal behavior.
The test procedure is modified from Boissier, et al., European J. Pharm., 4, 145-151 (1968). Female white mice, fasted 16-22 hours, are randomly distributed to fiberglass holding boxes. Mice in groups of 10-20 are dosed orally and returned to their holding boxes until test time. Test drug suspensions or solutions are prepared by sonication in 1% Methocel®. Typical dose ranges include 0.5, 1, 2, and 4 mg/k or 1, 3, 9, 27, 81 mg/kg plus a vehicle control and are selected to include one dose at which an effect such as sedation, stimulation, muscle weakness or analgesia was seen.
The test apparatus is an opaque, black plastic box with a clear lid and a stainless steel grid floor. The floor of the test box is marked off into four squares of equal size.
After dosing, a mouse is gently place in one corner of the testing box and during the next minute each time the mouse makes a full crossing from one square section of the box to another the floor is electrified with 0.4 ma current for 2.0 seconds.
The number of shocks received by each mouse is recorded and the mean number of shocks/dose (X) is determined. When X drug at any dose is statistically greater than X controls (Student's t test), antagonism of suppression obtains and the drug is presumed to have anti-anxiety activity.
as §3

[5] = system: morphine-induced Straub tail; assay: Muscle relaxant (anti-Straub tail) test; assay type: in vivo; settings: 0.5 h; mouse, oral (intubated), 30 minutes; blockade of morphine-induced Straub tail (53.7 mg/kg sc)
Description: as §1
Fasted female white mice, 5 per dose are intubated with test drug. Twenty-five minutes later morphine sulfate is given subcutaneously at 53.7 mg/kg. Thirty minutes after test drug the mice are observed for presence of Straub tail. Quantal ED50 values for blockade of morphine-induced Straub tail are calculated.
as §3

[6] = system: line crossings suppressed by shock; assay: Rat activity suppression test (RAST); assay type: in vivo; settings: 0.5 h, oral (intubated), 30 minutes, dose which would increase crossings 50% over controls
Description: as §1
The test apparatus consists of a circular cage with lid and with a floor of electrifiable steel bars. D.C. shock current is supplied to the bars such that touching any 2 alternate bars shocks the rat. The floor is marked to yield 4 equal pie-shaped sectors.
Fasted male white rats, 10 per dose are intubated with drug as described above for mice. Thirty minutes after dosing a rat is placed in the test apparatus and is allowed 30 seconds to transverse 25% of the floor area after which he receives a shock. The rat is allowed 5 seconds to recover from the shock, then its "line crossings" are counted for 60 seconds. The mean number of crossings per rat for each dose are determined and are compared to the mean number of crossings of the vehicle treated controls. ED50 %, the dose which would increase the number of crossings 50% over controls, is determined graphically.
as §3

[7] = man and other animals; cited from earlier work
[8] = warming in alcohol; cited from earlier work
[9] = 0.5 h, 30 minutes, read-out: MAST, ED20%

SMILES | ED50 [1] | ED50 [2] | ED50 [3] | ED20 [4, 9] | ED50 [5] | ED50 [6] | ED98 ([3]; intravenous PTZ challenge) | ED20 ([4]; 1 h, 60 minutes (footnote d), read-out: MAST, ED20% (at 60 minutes)) | metabolism [7] | stability (3-chloro derivative) [8]
CNC1=Nc2ccc(Cl)cc2C(c2ccccc2)=[N+]([O-])C1 [Chlorodiazepoxide, reference compound] | 70 mg/kg | 320 mg/kg | 7.5 mg/kg | 8.5 mg/kg | 1.9 mg/kg | 6 mg/kg | – | – | – | –
CN1C(=O)C(F)N=C(c2ccccc2F)c2cc(Br)ccc21 (stereo not drawn) [X=Br, Y=F, Z=CH3, 3-Fluoro-7-bromo-5-(2-fluorophenyl)-1,3-dihydro-1-methyl-2H-1,4-benzodiazepin-2-one] | < 4 mg/kg | < 324 mg/kg | 0.06 mg/kg | – | – | – | – | – | – | –
CN1C(=O)C(F)N=C(c2ccccc2Cl)c2cc(Cl)ccc21 (stereo not drawn) [X=Cl, Y=Cl, Z=CH3, 3-Fluoro-7-chloro-5-(2-chlorophenyl)-1,3-dihydro-1-methyl-2H-1,4-benzodiazepin-2-one] | 60 mg/kg | > 324 mg/kg | 0.09 mg/kg | – | – | – | – | – | – | –
O=C1Nc2ccc(Br)cc2C(c2ccccc2F)=NC1F (stereo not drawn) [X=Br, Y=F, Z=H, 3-Fluoro-7-bromo-5-(2-fluorophenyl)-1,3-dihydro-2H-benzodiazepin-2-one] | < 4 mg/kg | 300 mg/kg | 0.12 mg/kg | – | – | – | – | – | – | –
O=C1Nc2ccc(Cl)cc2C(c2ccccc2)=NC1O (stereo not drawn) [Oxazepam, reference compound] | 2.9 mg/kg | – | 2 mg/kg | 2.7 mg/kg | 0.26 mg/kg | 2.5 mg/kg | – | – | – | –
CN1C(=O)CN=C(c2ccccc2)c2cc(Cl)ccc21 [Diazepam, reference compound] | 4 mg/kg | 187 mg/kg | 0.49 mg/kg | 1.1 mg/kg | 1 mg/kg | 1.5 mg/kg | – | – | – | –
CCN1C(=O)C(F)N=C(c2ccccc2)c2cc(Cl)ccc21 (stereo not drawn) [X=Cl, Y=H, Z=C2 H5, 3-Fluoro-1,3-dihydro-1-ethyl-7-chloro-5-phenyl-2H-1,4-benzodiazepin-2-one] | 12 mg/kg | > 324 mg/kg | 0.56 mg/kg | 0.45 mg/kg | < 0.24 mg/kg | – | – | – | – | –
O=C1Nc2ccc(Br)cc2C(c2ccccc2)=NC1F (stereo not drawn) [X=Br, Y=H, Z=H, 3-Fluoro-7-bromo-1,3-dihydro-5-phenyl-2H-1,4-benzodiazepin-2-one] | 1.2 mg/kg | 100 mg/kg | 0.74 mg/kg | 0.04 mg/kg | 0.05 mg/kg | 0.15 mg/kg | – | – | – | –
CNC(=O)N1C(=O)C(F)N=C(c2ccccc2)c2cc(Cl)ccc21 (stereo not drawn) [X=Cl, Y=H, Z=[drawing 57]] | < 4 mg/kg | 36 mg/kg | – | – | – | – | – | – | – | –
C1CCc2nnnn2CC1 [PTZ, pentylenetetrazole, reference compound] | – | – | – | – | – | – | 40 mg/kg | – | – | –
C=CCN1C(=O)C(F)N=C(c2ccccc2)c2cc(Cl)ccc21 (stereo not drawn) [X=Cl, Y=H, Z=CH2 CHCH2, 3-Fluoro-1-(allyl)-7-chloro-5-phenyl-2H-1,4-benzodiazepin-2-one] | 20 mg/kg | 100 mg/kg | 6.1 mg/kg | 2.9 mg/kg | < 1 mg/kg | – | – | – | – | –
O=C1Nc2ccc(Cl)cc2C(c2ccccc2)=NC1F (stereo not drawn) [X=Cl, Y=H, Z=H, 3-Fluoro-1,3-dihydro-7-chloro-5-phenyl-2H-1,4-benzodiazepin-2-one] | 2.6 mg/kg | – | 0.39 mg/kg | – | 0.1 mg/kg | – | – | 0.37 mg/kg | – | –
O=C1CN=C(c2ccccc2)c2cc([N+](=O)[O-])ccc2N1 [nitrazepam] | – | – | – | – | – | – | – | – | metabolized in man and other animals by oxidative attack at the 3-position | –
CN1C(=O)C(F)N=C(c2ccccc2)c2cc(Br)ccc21 (stereo not drawn) [X=Br, Y=H, Z=CH3, 3-Fluoro-7-bromo-1,3-dihydro-1-methyl-5-phenyl-2H-1,4-benzo-diazepin-2-one] | 1.3 mg/kg | 300 mg/kg | 0.22 mg/kg | 0.16 mg/kg | – | 1.7 mg/kg | – | – | – | –
O=C1Nc2ccc(Cl)cc2C(c2ccccc2)=NC1Cl (stereo not drawn) [3,7-dichloro-5-phenyl-1,3-dihydro-2H-1,4-benzodiazepin-2-one] | – | – | – | – | – | – | – | – | – | extremely reactive: mere warming in alcohol caused decomposition
CCN(CC)CCN1C(=O)CN=C(c2ccccc2F)c2cc(Cl)ccc21 [flurazepam] | – | – | – | – | – | – | – | – | metabolized in man and other animals by oxidative attack at the 3-position | –
CN1C(=O)C(F)N=C(c2ccccc2F)c2cc(Cl)ccc21 (stereo not drawn) [X=Cl, Y=F, Z=CH3, 3-Fluoro-1,3-dihydro-1-methyl-7-chloro-5-(2-fluorophenyl)-2H-1,4-benzodiazepin-2-one] | 7 mg/kg | 200 mg/kg | 0.12 mg/kg | 0.05 mg/kg | 0.06 mg/kg | 0.24 mg/kg | – | – | – | –
O=C1Nc2ccc(Cl)cc2C(c2ccccc2Cl)=NC1F (stereo not drawn) [X=Cl, Y=Cl, Z=H, 3-Fluoro-7-chloro-5-(2-chlorophenyl)-1,3-dihydro-2H-1,4-benzodiazepin-2-one] | < 4 mg/kg | > 324 mg/kg | 0.34 mg/kg | 1.15 mg/kg | < 0.33 mg/kg | – | – | – | – | –
O=C1Nc2ccc(Cl)cc2C(c2ccccc2F)=NC1F (stereo not drawn) [X=Cl, Y=F, Z=H, 3-Fluoro-1,3-dihydro-7-chloro-5-(2-fluorophenyl)-2H-1,4-benzodiazepin-2-one] | 12 mg/kg | 200 mg/kg | 0.42 mg/kg | 0.48 mg/kg | – | – | – | – | – | –
CN1C(=O)C(F)N=C(c2ccccc2)c2cc(Cl)ccc21 (stereo not drawn) [X=Cl, Y=H, Z=CH3, 3-Fluoro-1,3-dihydro-1-methyl-7-chloro-5-phenyl-2H-1,4-benzodiazepin-2-one] | 5 mg/kg | 121 mg/kg | 0.18 mg/kg | 0.25 mg/kg | 0.25 mg/kg | 0.45 mg/kg | – | – | – | –
